# “And” between values parts separate entries of the source, which are not always exact repeats. Equal values may be shown once. “Also recorded” adds a separate entry of the source.
# Tested on: White Blood Cell (WBC)
# Experiment: TPA induced white blood cell changes in patients with solid tumors undergoing chemotherapy
# Type: in vivo, humans
# Experimental: TPA solution in a sterile syringe was injected into 200 ml of saline and mixed well for i.v. infusion.
# Patients undergoing chemotherapy for the treatment of solid tumors.
# Subject No. (11), person. Diagnosis: malignant lymphoma. The patient had received adramycin, vincristine, and hormonal treatment. The blood cell counts were decreased to: Hb: 78 g/L, WBC: 0.7×10^9 /L, platelet: 245×10^9 /L. 0.25 mg TPA was administered to the patient 4 times. The blood cell counts improved to: Hb: 76 g/L, WBC: 6.8×10^9 /L, platelet: 331×10^9 /L. Chemotherapy was then continued for 5 more days, and followed by one dose of 0.5 mg TPA. The WBC count was maintained at 3.0×10^9 /L. The patient is still receiving treatment.
# Subject No. (12), person. Diagnosis: brain tumor. Blood profile after chemotherapy was: Hb: 119 g/L, WBC: 3.0×10^9 /L, platelet: 399×10^9 /L. 0.25 mg TPA was given to the patient once. On the day after the TPA treatment, the blood profile was Hb: 123 g/L, WBC: 4.5×10^9 /L, platelet: 436×10^9 /L. The patient received further chemotherapy.
# Subject No. (13), person. Diagnosis: lung cancer. After chemotherapy, their blood cell counts were decreased to: Hb: 76 g/L, WBC: 0.9×10^9 /L, platelet: 100×10^9 /L. 0.25 mg TPA was given to the patient twice. On the day after the TPA treatment, Hb: 74 g/L, WBC: 2.5×10^9 /L, platelet: 110×10^9 /L. The patient is still receiving treatment.
# Subject No. (14), person. Diagnosis: breast cancer. The WBC after chemotherapy was 3.8×10^9 /L. 0.25 mg of TPA was given to the patient once. The WBC on the day after the TPA treatment was 8.0×10^9 /L.
# Subject No. (15), person. Diagnosis: Esophageal Cancer. Surgery was performed, followed by chemotherapy using cisplatin, 5-fluorouracil. Blood profile (before TPA): WBC: 2.4×10^9 /L; neutrophil: 83%, lymphocyte: 17%; platelet: 150×10^9 /L; RBC: 3.43×10^12 /L; Hb: 107 g/L. TPA dosage: 0.25 mg. […] The cardiac, hepatic, renal and pulmonary functions were normal.
# Subject No. (16), person. Diagnosis: Esophageal Cancer. Surgery was performed, followed by chemotherapy using VP16, MTX, MMC and cisplatin. TPA dose: 0.25 mg. Blood profile (before TPA): WBC: 2.4×10^9 /L; neutrophil: 67%; lymphocyte: 23%; platelet: 101×10^9 /L; RBC: 3.45×10^12 /L; Hb: 114 g/L. Blood profile (one day after TPA): WBC: 5.2×10^9 /L; neutrophil: 87%; lymphocyte: 13%; platelet 60×10^9 /L; RBC: 3.76×10^12 /L; Hb: 122 g/L. Blood profile (2 days after TPA administration).
# Subject No. (17), person. Diagnosis: breast cancer. Surgery was performed, followed by chemotherapy using CTX, MTX, and 5-FU. TPA dose: 0.25 mg×2 (Second dose was 4 days after 1st dose). […] The cardiac, hepatic, renal and pulmonary functions were normal.
# Subject No. (18), person. Diagnosis: Colon cancer. Surgery was performed, followed by chemotherapy using Cisplatin, VP16, and 5-FU. TPA dose: 0.25 mg×2 (2nd TPA dose was administered 24 hrs after 1st TPA dose). […] Cardiac hepatic, renal and pulmonary functions were normal.
# Subject No. (19), person. Diagnosis: lung cancer metastasized to adrenal gland. Surgery was performed, followed by chemotherapy using MMC, VCR, and CTX. TPA dosage: 0.25 mg×2 (2nd TPA dose was administered 24 hrs after 1st TPA dose). […] Cardiac, hepatic renal and pulmonary functions were normal.
# Subject No. (20), person. Diagnosis: esophageal cancer metastasized to liver, lung and brain. The patient received chemotherapy using Taxol, cisplatin, 5-FU and Semustial. Total TPA dosage: 2mg. Blood profile (before TPA): WBC: 0.7×10^9 /L; neutrophil: 29%; lymphocyte: 71%; platelet: N/A; RBC: 2.82×10^12 /L; Hb: 87 g/L. TPA treatment schedule. On the first and third day, 0.25 mg was given and on the 5th, 7th and 9th day 0.5 mg of TPA was given. […] Cardiac, hepatic, renal and pulmonary functions were normal.
# Subject No. (21), person. Diagnosis: lymphoma metastasized to bone marrow. […]
# [1] = 2 days after second TPA dose (0.25 mg×2)
# [2] = 2 days after single TPA 0.25 mg
# [3] = 4 days after single TPA 0.25 mg
# [4] = 7 days after single TPA 0.25 mg
# [5] = one day after second TPA dose (0.25 mg×2)
# [6] = one day after single TPA 0.25 mg
# [7] = solid tumor patients after TPA 0.25 mg doses
# [8] = subject 11, malignant lymphoma, after 0.25 mg TPA 4 times
# [9] = subject 17, 3 days after first TPA dose 0.25 mg
# [10] = subject 17, 4 days after second TPA dose 0.25 mg
# [11] = subject 20, 11th day, TPA total 2 mg over 9 days
# [12] = subject 20, day 2, TPA total 2 mg over 9 days
# [13] = subject 20, day 4, TPA total 2 mg over 9 days
# [14] = subject 20, day 6, TPA total 2 mg over 9 days
# [15] = subject 20, day 8, TPA total 2 mg over 9 days
# [16] = subject 20, day 13, TPA total 2 mg over 9 days
# [17] = subject 21, day 2, TPA total 2.5 mg, days 1-8
# [18] = subject 21, day 4, TPA total 2.5 mg, days 1-8
# [19] = subject 21, day 7, TPA total 2.5 mg, days 1-8
# [20] = subject 21, day 9, TPA total 2.5 mg, days 1-8
compound,measurement,setting,value
"CCCCCCCCCCCCCC(=O)O[C@@H]1[C@@H](C)[C@@]2(O)[C@@H](C=C(CO)C[C@]3(O)C(=O)C(C)=C[C@@H]23)[C@@H]2C(C)(C)[C@]12OC(C)=O [TPA, Phorbol 12-Myristate-13-Acetate]",Hb,[1],101 g/L
same,WBC,[1],3.8e+09 L⁻¹ and 5e+09 L⁻¹
same,lymphocyte,[1],16% and 20%
same,neutrophil,[1],84% and 80%
same,platelet,[1],8.4e+10 L⁻¹
same,Hb,[2],109 g/L and 116 g/L
same,RBC,[2],2.99e+12 L⁻¹
same,WBC,[2],4.5e+09 L⁻¹ and 5.6e+09 L⁻¹
same,lymphocyte,[2],20% and 19%
same,neutrophil,[2],80% and 81%
same,platelet,[2],6.4e+10 L⁻¹
same,Hb,[3],112 g/L and 129 g/L
same,RBC,[3],3.36e+12 L⁻¹
same,WBC,[3],4.4e+09 L⁻¹ and 3.9e+09 L⁻¹
same,platelet,[3],1.05e+11 L⁻¹
same,Hb,[4],118 g/L and 138 g/L
same,neutrophil,[4],82% and 48%
same,recovery of infection fighting cells,after and during chemotherapy,help speed the rapid recovery of the infection fighting cells
same,Hb,[5],74 g/L and 112 g/L and 93 g/L
same,RBC,[5],4.1 ×10^12
same,neutrophil,[5],60% and 82%
same,platelet,[5],1.1e+11 L⁻¹ and 1.98e+11 L⁻¹
same,Hb,[6],123 g/L and 109 g/L and 122 g/L and 116 g/L and 139 g/L and 126 g/L and 120 g/L
same,RBC,[6],3.33e+12 L⁻¹ and 3.76e+12 L⁻¹
same,neutrophil,[6],94% and 87% and 79% and 53% and 60% and 90% and 83%
same,time of elevation of white blood cell count,"patients receiving chemotherapy, often",within one day
same,duration of fever,[7],4 h
same,"fever, temperature after TPA",[7],38 °C and 39.2 °C and 37.8 °C and 39 °C
same,"cardiac, hepatic, renal and pulmonary functions","solid tumor patients after TPA, one subject per block",normal; also recorded: same as before TPA treatment; also recorded: functioning normally
same,Symptoms after TPA,"solid tumor patients undergoing chemotherapy, one subject per block","Chill, fever, local irritation and slight headache; also recorded: chills, fever, local irritation; also recorded: Chills at 5th day which lasted about one hour; also recorded: No chills and fever, only local irritation; also recorded: No chills. Low fever; also recorded: Stomach ache and diarrhea (which disappeared soon after)"
same,WBC count maintained,"subject 11, after 5 more days chemotherapy and one dose 0.5 mg TPA",3e+09 L⁻¹
same,Hb,[8],76 g/L
same,WBC,[8],6.8e+09 L⁻¹
same,platelet,[8],3.31e+11 L⁻¹
same,Hb,[9],107 g/L
same,RBC,[9],3.36e+12 L⁻¹
same,WBC,[9],2.9e+09 L⁻¹
same,lymphocyte,[9],17%
same,neutrophil,[9],83%
same,platelet,[9],1.22e+11 L⁻¹
same,Hb,[10],112 g/L
same,RBC,[10],3.49e+12 L⁻¹
same,WBC,[10],4.4e+09 L⁻¹
same,lymphocyte,[10],14%
same,neutrophil,[10],86%
same,platelet,[10],1.93e+11 L⁻¹
same,duration of chills,"subject 17, TPA 0.25 mg×2",2 h
same,Hb,[11],61 g/L
same,RBC,[11],2.91e+12 L⁻¹
same,WBC,[11],2.7e+09 L⁻¹
same,lymphocyte,[11],15%
same,neutrophil,[11],85%
same,platelet,[11],3.76e+10 L⁻¹
same,Hb,[12],72 g/L
same,RBC,[12],2.17e+12 L⁻¹
same,WBC,[12],9e+08 L⁻¹
same,lymphocyte,[12],34%
same,neutrophil,[12],66%
same,platelet,[12],8.2e+10 L⁻¹
same,Hb,[13],58 g/L
same,RBC,[13],2.09e+12 L⁻¹
same,WBC,[13],1.1e+09 L⁻¹
same,lymphocyte,[13],9%
same,neutrophil,[13],91%
same,platelet,[13],3.9e+10 L⁻¹
same,Hb,[14],70 g/L
same,RBC,[14],1.9 ×10^12
same,WBC,[14],1.9e+09 L⁻¹
same,lymphocyte,[14],5%
same,neutrophil,[14],95%
same,platelet,[14],4.3e+10 L⁻¹
same,Hb,[15],61 g/L
same,RBC,[15],1.71e+12 L⁻¹
same,WBC,[15],2.3e+09 L⁻¹
same,lymphocyte,[15],9%
same,neutrophil,[15],91%
same,platelet,[15],9e+10 L⁻¹
same,Hb,[16],57 g/L
same,RBC,[16],1.73e+12 L⁻¹
same,WBC,[16],1.9e+09 L⁻¹
same,lymphocyte,[16],10%
same,neutrophil,[16],90%
same,platelet,[16],3.2e+10 L⁻¹
same,Hb,[17],117 g/L
same,RBC,[17],4.15e+12 L⁻¹
same,WBC,[17],6e+08 L⁻¹
same,platelet,[17],6.9e+10 L⁻¹
same,Hb,[18],109 g/L
same,RBC,[18],3.95e+12 L⁻¹
same,WBC,[18],6e+08 L⁻¹
same,lymphocyte,[18],72%
same,neutrophil,[18],28%
same,platelet,[18],6.8e+10 L⁻¹
same,Hb,[19],110 g/L
same,RBC,[19],4.22e+12 L⁻¹
same,WBC,[19],8e+08 L⁻¹
same,lymphocyte,[19],12%
same,neutrophil,[19],88%
same,platelet,[19],6e+10 L⁻¹
same,Hb,[20],112 g/L
same,RBC,[20],4.02e+12 L⁻¹
same,WBC,[20],1.5e+09 L⁻¹
same,lymphocyte,[20],2%
same,neutrophil,[20],80%
same,platelet,[20],6.9e+10 L⁻¹
same,resolution of injection site symptoms,"subject 25, TPA 0.25 mg",disappeared the second day after they appeared
same,injection site reaction,"subject 25, TPA 0.25 mg, probably caused by infusion needle","red, swollen in appearance and painful"
same,duration of raised temperature,"subject 26, TPA 0.25 mg",3 h
same,Hb,three days after TPA 0.25 mg,123 g/L
same,WBC,three days after TPA 0.25 mg,2.9e+09 L⁻¹
same,lymphocyte,three days after TPA 0.25 mg,27%
same,neutrophil,three days after TPA 0.25 mg,73%

# — patent US6063814A, “Phorbol esters as anti-neoplastic and white blood cell elevating agents” (priority 1997, dated 2000)
